Reference: patent US10301299B2, “Glycosidase inhibitors” (Merck Patent GmbH, priority 2013, dated 2019)

Each molecule was assayed on B35 rat neuroblastoma cells (assay: Cellular O-GlcNAcylation assay (tau O-GlcNAc S400, ICC)). Conditions: Neuroblastoma cell, 16 h, tau O-GlcNAcylated at serine 400.
Format: cell-based
Protocol: The following day cells were treated with appropriate concentration of a solution of inhibitor for 16 h at 37° C. in 5% CO2. Cells were fixed in 100 μl 4% paraformaldehyde for 15 min at room temperature, followed by three washes in PBS buffer. The cells were then permeabilized with 0.1% Triton X-100 for 60 min at room temperature. After three washes in PBS the cells were blocked with 10% goat serum containing 1% BSA in PBS buffer for two hours at room temperature. The cells were then incubated with a monoclonal rabbit antibody specific for tau O-GlcNAcylated at serine 400 (Epitomics) at a 1:1000 dilution overnight at 4° C. […] To calculate an EC50 the total peak intensity was plotted against the concentration of inhibitor to produce a sigmoidal dose response curve.

Q: How did the EC50 turn out when `CC(=O)Nc1ncc(C(C)N2CCC(c3ccccc3)CC2)s1` (centres unmarked) [Compound 40, N-(5-(1-(4-phenylpiperidin-1-yl)ethyl)thiazol-2-yl)acetamide] was run?
A: 200 to 1000 nM

Q: With `CC(=O)Nc1ncc(CNCCCc2ccccc2)s1` [Compound 20, N-{5-[(3-phenyl-propylamino)-methyl]-thiazol-2-yl}-acetamide] as the molecule, how does the EC50 read?
A: 1000 to 10000 nM

Q: For `COc1cccc(C2CCN(Cc3cnc(NC(C)=O)s3)CC2)c1` [Compound 32, N-(5-((4-(3-methoxyphenyl)piperidin-1-yl)methyl)thiazol-2-yl)acetamide], which EC50 is on record?
A: 200 to 1000 nM

Q: With `CC(=O)Nc1ncc(CN2CCC(c3ccccc3C#N)CC2)s1` [Compound 35, N-(5-((4-(2-cyanophenyl)piperidin-1-yl)methyl)thiazol-2-yl)acetamide] as the molecule, how does the EC50 read?
A: 200 to 1000 nM

Q: Which EC50 does the source give for `CC(=O)Nc1ncc(CN2CCC(c3ccc(C)cc3)CC2)s1` [Compound 14, N-(5-((4-(p-tolyl)piperidin-1-yl)methyl)thiazol-2-yl)acetamide] here?
A: 200 to 1000 nM

Q: `CC(=O)Nc1ncc(CN2CCC(c3cccc(C)c3)CC2)s1` [Compound 31, N-(5-((4-(m-tolyl)piperidin-1-yl)methyl)thiazol-2-yl)acetamide] was tested. Which EC50 did it give?
A: < 200 nM

The molecules below were run against T1, His-Tagged hOGA (Homo sapiens, UniProt O60502) (assay: Human O-GlcNAcase enzyme inhibition assay). Conditions: not given.
T1 sequence (O60502 1-916): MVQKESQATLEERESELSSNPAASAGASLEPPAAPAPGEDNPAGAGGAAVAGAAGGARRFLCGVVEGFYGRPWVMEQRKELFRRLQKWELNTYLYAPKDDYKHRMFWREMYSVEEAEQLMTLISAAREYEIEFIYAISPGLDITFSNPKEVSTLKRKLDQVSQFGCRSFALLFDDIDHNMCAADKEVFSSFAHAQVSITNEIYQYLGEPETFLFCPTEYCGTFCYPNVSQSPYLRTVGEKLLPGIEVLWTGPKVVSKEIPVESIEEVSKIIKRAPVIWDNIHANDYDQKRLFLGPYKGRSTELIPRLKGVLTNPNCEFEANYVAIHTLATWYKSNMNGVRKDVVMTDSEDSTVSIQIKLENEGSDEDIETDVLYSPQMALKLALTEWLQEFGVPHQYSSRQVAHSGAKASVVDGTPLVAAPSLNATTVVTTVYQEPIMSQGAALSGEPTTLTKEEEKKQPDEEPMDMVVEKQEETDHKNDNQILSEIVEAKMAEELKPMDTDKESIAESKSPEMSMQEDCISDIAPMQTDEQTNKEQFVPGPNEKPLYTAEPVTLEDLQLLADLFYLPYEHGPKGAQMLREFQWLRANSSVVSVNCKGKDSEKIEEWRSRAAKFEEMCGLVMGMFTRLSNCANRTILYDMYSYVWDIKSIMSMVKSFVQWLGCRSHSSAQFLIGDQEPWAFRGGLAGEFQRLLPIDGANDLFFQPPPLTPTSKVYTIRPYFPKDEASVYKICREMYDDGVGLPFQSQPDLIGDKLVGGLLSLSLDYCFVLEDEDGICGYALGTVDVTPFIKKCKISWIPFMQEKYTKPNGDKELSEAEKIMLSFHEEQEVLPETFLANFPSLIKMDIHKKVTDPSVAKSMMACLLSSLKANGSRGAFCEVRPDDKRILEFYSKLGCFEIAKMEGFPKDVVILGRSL
Format: biochemical
Protocol: The following reaction components were added to a final volume of 10 μL in Mcllvaine's Buffer (pH 6.5): 20 nM His-Tagged hOGA and 10 μM Fluorescein mono-beta-D-(2-deoxy-2-N-acetyl) glucopyranoside (FL-GlcNAc; Marker Gene Technologies Inc, Part # M1485). […] The amount of fluorescence measured was plotted against the concentration of inhibitor to produce a sigmoidal dose response curve, from which an IC50 was calculated.

Q: Which IC50 does the source give for `CC(=O)Nc1ncc(CN2CCC(Cc3ccc(C)cc3)CC2)s1` [Compound 54, N-(5-((4-(4-METHYLBENZYL)PIPERIDIN-1-YL)METHYL)THIAZOL-2-YL)ACETAMIDE] here?
A: < 200 nM

Q: `CC(=O)Nc1ncc(CN2CCC(C#N)(c3ccccc3)CC2)s1` [Compound 23, N-[5-(4-cyano-4-phenyl-piperidin-1-ylmethyl)-thiazol-2-yl]-acetamide] was tested. Which IC50 did it give?
A: > 10000 nM

Q: With `CC(=O)Nc1ncc(CN2CCC(Cc3ccccc3)CC2C)s1` (centres unmarked) [Compound 51, N-(5-((4-BENZYL-2-METHYLPIPERIDIN-1-YL)METHYL)THIAZOL-2-YL)ACETAMIDE] as the molecule, how does the IC50 read?
A: < 200 nM

Q: Which IC50 does the source give for `COc1ccc(CC2CCN(Cc3cnc(NC(C)=O)s3)CC2)cc1` [Compound 55, N-(5-((4-(4-METHOXYBENZYL)PIPERIDIN-1-YL)METHYL)THIAZOL-2-YL)ACETAMIDE] here?
A: < 200 nM

Same assay, conditions: 20 nM His-Tagged hOGA, 10 μM FL-GlcNAc, pH 6.5, 60 min; read-out: hOGA enzyme inhibition (IC50)

Q: `c1ccc(C2CCN(Cc3cnc(NC4CC4)s3)CC2)cc1` [Compound 12, N-cyclopropyl-5-((4-phenylpiperidin-1-yl)methyl)thiazol-2-amine] was tested. Which IC50 did it give?
A: > 10000 nM

Q: `CC(=O)Nc1ncc(C(C)N2CCC(c3ccccc3)CC2)s1` (centres unmarked) [Compound 40, N-(5-(1-(4-phenylpiperidin-1-yl)ethyl)thiazol-2-yl)acetamide] was tested. Which IC50 did it give?
A: 200 to 1000 nM

Q: `CC(=O)Nc1ncc(CN2CCC(Cc3ccc(Cl)cc3)CC2)s1` [Compound 46, N-(5-((4-(4-chlorobenzyl)piperidin-1-yl)methyl)thiazol-2-yl)acetamide] was tested. Which IC50 did it give?
A: < 200 nM

Q: For `CC(=O)Nc1ncc(CN2CCC(Cc3ccc4ccccc4c3)CC2)s1` [Compound 56], which IC50 is on record?
A: < 200 nM

Q: With `CC(=O)Nc1ncc(CNCCCc2ccccc2)s1` [Compound 20, N-{5-[(3-phenyl-propylamino)-methyl]-thiazol-2-yl}-acetamide] as the molecule, how does the IC50 read?
A: 200 to 1000 nM

Q: How did the IC50 turn out when `CCNc1ncc(CN2CCC(c3ccccc3)CC2)s1` [Compound 5, N-ethyl-5-((4-phenylpiperidin-1-yl)methyl)thiazol-2-amine] was run?
A: > 10000 nM

Q: `CNC(=O)Nc1ncc(CN2CCC(c3ccccc3)CC2)s1` [Compound 10, 1-methyl-3-(5-((4-phenylpiperidin-1-yl)methyl)thiazol-2-yl)urea] was tested. Which IC50 did it give?
A: 1000 to 10000 nM

Q: How did the IC50 turn out when `COc1cccc(C2CCN(Cc3cnc(NC(C)=O)s3)CC2)c1` [Compound 32, N-(5-((4-(3-methoxyphenyl)piperidin-1-yl)methyl)thiazol-2-yl)acetamide] was run?
A: < 200 nM

Q: How did the IC50 turn out when `CC(=O)Nc1ncc(CN2CCC(c3ccccc3C#N)CC2)s1` [Compound 35, N-(5-((4-(2-cyanophenyl)piperidin-1-yl)methyl)thiazol-2-yl)acetamide] was run?
A: 1000 to 10000 nM

Q: For `CC(=O)Nc1ncc(CN2CCC(c3ccc(C)cc3)CC2)s1` [Compound 14, N-(5-((4-(p-tolyl)piperidin-1-yl)methyl)thiazol-2-yl)acetamide], which IC50 is on record?
A: < 200 nM

Q: `CC(=O)Nc1ncc(CN2CCC(c3cccc(C)c3)CC2)s1` [Compound 31, N-(5-((4-(m-tolyl)piperidin-1-yl)methyl)thiazol-2-yl)acetamide] was tested. Which IC50 did it give?
A: < 200 nM

Q: Which IC50 does the source give for `CC(=O)Nc1ncc(CN2CCC(C)CC2)s1` [Compound 15, N-[5-(4-methyl-piperidin-1-ylmethyl)-thiazol-2-yl]-acetamide] here?
A: 1000 to 10000 nM

Q: `CC(=O)Nc1ncc(CN2CCC(Oc3ccccc3)CC2)s1` [Compound 61, N-(5-((4-PHENOXYPIPERIDIN-1-YL)METHYL)THIAZOL-2-YL)ACETAMIDE] was tested. Which IC50 did it give?
A: 200 to 1000 nM

Q: For `CC(c1ccc2c(c1)OCO2)N1CCN(Cc2cnc(N3CCNC(=O)C3)s2)CC1` (centres unmarked) [Compound 59, 4-(5-((4-(1-(BENZO[D][1,3]DIOXOL-5-YL)ETHYL)PIPERAZIN-1-YL)METHYL)THIAZOL-2-YL)PIPERAZIN-2-ONE], which IC50 is on record?
A: 1000 to 10000 nM

Q: How did the IC50 turn out when `CCC(=O)Nc1ncc(CN2CCC(c3ccccc3)CC2)s1` [Compound 3, N-(5-((4-phenylpiperidin-1-yl)methyl)thiazol-2-yl)propionamide] was run?
A: 200 to 1000 nM

Q: How did the IC50 turn out when `CC(=O)Nc1ncc(CN2CCN(C(C)c3ccc4c(c3)OCO4)CC2)s1` (centres unmarked) [Compound 58, N-(5-((4-(1-(BENZO[D][1,3]DIOXOL-5-YL)ETHYL)PIPERAZIN-1-YL)METHYL)THIAZOL-2-YL)ACETAMIDE] was run?
A: 1000 to 10000 nM

Q: `CC(=O)Nc1ncc(CN2CCC(Cc3ccc4c(c3)OCO4)CC2)s1` [Compound 47] was tested. Which IC50 did it give?
A: < 200 nM

Q: How did the IC50 turn out when `CCCNc1ncc(CN2CCC(c3ccccc3)CC2)s1` [Compound 6, 5-((4-phenylpiperidin-1-yl)methyl)-N-propylthiazol-2-amine] was run?
A: > 10000 nM

Q: How did the IC50 turn out when `CC(=O)Nc1ncc(CN2CCC(CCc3ccccc3)CC2)s1` [Compound 62] was run?
A: < 200 nM

Q: How did the IC50 turn out when `CCc1ncc(CN2CCC(c3ccccc3)CC2)s1` [Compound 8, 2-ethyl-5-((4-phenylpiperidin-1-yl)methyl)thiazole] was run?
A: > 10000 nM

Q: With `CC(=O)N(C)c1ncc(CN2CCC(c3ccccc3)CC2)s1` [Compound 9, N-methyl-N-(5-((4-phenylpiperidin-1-yl)methyl)thiazol-2-yl)acetamide] as the molecule, how does the IC50 read?
A: 1000 to 10000 nM

Q: `CC(=O)Nc1ncc(CN2CCC(c3ccccc3)CC2)o1` [Compound 13] was tested. Which IC50 did it give?
A: 1000 to 10000 nM

Q: How did the IC50 turn out when `CC(=O)Nc1ncc(CN2CCC(N(C)C)CC2)s1` [Compound 34, N-(5-((4-(dimethylamino)piperidin-1-yl)methyl)thiazol-2-yl)acetamide] was run?
A: > 10000 nM

Q: How did the IC50 turn out when `CCC(=O)Cc1ncc(CN2CCC(c3ccccc3)CC2)s1` [Compound 18] was run?
A: > 10000 nM

Q: With `Cc1ncc(CN2CCC(c3ccccc3)CC2)s1` [Compound 7, 2-methyl-5-((4-phenylpiperidin-1-yl)methyl)thiazole] as the molecule, how does the IC50 read?
A: > 10000 nM

Q: How did the IC50 turn out when `CC(=O)Nc1ncc(CN2CCC(Cc3ccccc3)C(C)C2)s1` (centres unmarked) [Compound 53, N-(5-((4-BENZYL-3-METHYLPIPERIDIN-1-YL)METHYL)THIAZOL-2-YL)ACETAMIDE] was run?
A: < 200 nM

Q: `CC(=O)Nc1ncc(CN2CCC(c3ccccc3C(=O)O)CC2)s1` [Compound 44, 2-(1-((2-acetamidothiazol-5-yl)methyl)piperidin-4-yl)benzoic acid] was tested. Which IC50 did it give?
A: > 10000 nM

Q: Which IC50 does the source give for `CS(=O)(=O)Nc1ncc(CN2CCC(c3ccccc3)CC2)s1` [Compound 11, N-[5-(4-phenyl-piperidin-1-ylmethyl)-thiazol-2-yl]-methanesulfonamide] here?
A: > 10000 nM

Q: With `CC(=O)Nc1ncc(CN2CCC(O)(c3ccccc3)CC2)s1` [Compound 24, N-[5-(4-hydroxy-4-phenyl-piperidin-1-ylmethyl)-thiazol-2-yl]-acetamide] as the molecule, how does the IC50 read?
A: 1000 to 10000 nM

Q: For `CC(=O)Nc1ncc(CN2CCC(Cc3ccc(F)cc3)CC2)s1` [Compound 48, N-(5-((4-(4-FLUOROBENZYL)PIPERIDIN-1-YL)METHYL)THIAZOL-2-YL)ACETAMIDE], which IC50 is on record?
A: < 200 nM

Q: Which IC50 does the source give for `C=CC(=O)Nc1ncc(CN2CCC(c3ccccc3)CC2)s1` [Compound 4, N-[5-(4-phenyl-piperidin-1-ylmethyl)-thiazol-2-yl]-acrylamide] here?
A: 1000 to 10000 nM

Q: Which IC50 does the source give for `CC(=O)Nc1ncc(CN2CCC(Cc3ccc(C(F)(F)F)cc3)CC2)s1` [Compound 49, N-(5-((4-(4-(TRIFLUOROMETHYL)BENZYL)PIPERIDIN-1-YL)METHYL)THIAZOL-2-YL)ACETAMIDE] here?
A: < 200 nM

Q: Which IC50 does the source give for `CC(=O)Cc1ncc(CN2CCC(c3ccccc3)CC2)s1` [Compound 17] here?
A: > 10000 nM

Q: Which IC50 does the source give for `CC(=O)Nc1ncc(CN2CCC(Cc3cc(F)cc(F)c3)CC2)s1` [Compound 64, N-(5-((4-(3,5-DIFLUOROBENZYL)PIPERIDIN-1-YL)METHYL)THIAZOL-2-YL)ACETAMIDE] here?
A: < 200 nM

Q: How did the IC50 turn out when `CC(=O)Nc1ncc(CN2CCC(Cc3cccc(F)c3)CC2)s1` [Compound 50, N-(5-((4-(3-FLUOROBENZYL)PIPERIDIN-1-YL)METHYL)THIAZOL-2-YL)ACETAMIDE] was run?
A: < 200 nM

Q: With `CC(=O)Nc1ncc(CN2CCC(Cc3ccccc3)C(F)C2)s1` (single isomer, unassigned) [Compound 52, N-(5-((-4-BENZYL-3-FLUOROPIPERIDIN-1-YL)METHYL)THIAZOL-2-YL)ACETAMIDE] as the molecule, how does the IC50 read?
A: < 200 nM

Q: For `CC(=O)Nc1ncc(CN2CCC(Cc3ccc4nccnc4c3)CC2)s1` [Compound 63], which IC50 is on record?
A: < 200 nM
